# Results published in patent publication US20240210412A1, “SULFONYL-TRIAZOLE COMPOUNDS USEFUL AS LIGANDS AND INHIBITORS OF PROSTAGLANDIN REDUCTASE 2” (University of Virginia Patent Foundation, priority 2021, published 2024).
# “Also recorded” adds a separate entry of the source.
# How the values were obtained:
# A6NKT7 = test: SILAC LC-MS ABPP; type: cell-based, human; conditions: 25 μM 2 h, live DM93 cells
# Protocol: (§1) Cells were grown to 90-95% confluence before being washed once with warm, sterile DPBS (1×, 5 mL), followed by addition of 10 mL of serum-free media (supplemented with 1% L-glutamine) containing either DMSO or SuTEx fragment (in DMSO) was added. Light cells were treated with DMSO vehicle while the heavy cells were treated with DMSO or SuTEx fragment (in DMSO) and incubated for 2 hrs. After 2 hrs, the cells were treated with SuTEx alkyne probe (HHS475, 10 μL of 1000× DMSO stock) and incubated for an additional 2 hrs. The media was aspirated and cells washed with cold PBS (5 mL) and harvested. Cells were spun at 500×g for 5 min at 4° C. followed by removal of supernatant. Pellets were resuspended in 1 mL of cold DPBS and spun at 1,400×g for 3 min at 4° C. followed by removal of supernatant. The cells were lysed in PBS by sonication and fractionated (100,000×g, 45 min, 4° C.).The light and heavy soluble fractions were diluted to 2.3 mg/mL in PBS and 432 μL were used for analysis (1 mg total protein). The probe-modified proteomes were conjugated to desthiobiotin-PEG3-azide (10 μl of 10 mM stock in DMSO; 200 μM final concentration) using TCEP (10 μl of fresh 50 mM stock in water, 1 mM final concentration), TBTA ligand (33 μl of a 1.7 mM 4:1 t-butanol/DMSO stock, 100 μM final concentration) and CuSO4 (10 μl of 50 mM stock, 1 mM final concentration). Samples were vortexed to mix and incubated for 1 hr at room temperature. The heavy and light proteomes were mixed 1:1 and the subsequent steps, including LC-MS/MS data analysis, were performed as previously described^[8a].
# (§2) Coupling cell-based screens with chemical proteomics can facilitate the identification of target protein and binding sites that engage and are irreversibly modified by covalent ligands^[12]. In these assays, covalent ligands block SuTEx activity-based probe (ABP) labeling at protein sites, and the competition of probe labeling can be used to quantify potency and selectivity across the proteome^[10a]. To facilitate quantitative chemical proteomics, DM93 melanoma cells were cultured using stable isotopic labeling by amino acids in cell culture (SILAC)^[13]. Cells cultured in “light” media were treated with dimethyl sulfoxide (DMSO) vehicle while cells cultured in “heavy” media were treated with SuTEx ligand (25 μM, 2 hours, 37° C.). Next, cells were treated with HHS-475 probe (100 μM, 2 hours, 37° C.) followed by lysis and processing of proteomes for analysis. Probe-modified proteins from the soluble fraction were conjugated to a desthiobiotin-azide tag by copper-catalyzed azide-alkyne cycloaddition (CuAAC)^[14] followed by mixing of the light and heavy proteomes. The combined proteomes were digested with trypsin protease to produce probe-modified peptides, followed by enrichment and purification by avidin affinity chromatography. Probe-modified peptides were resolved, identified, and quantified by high-resolution liquid chromatography-tandem mass spectrometry (LC-MS/MS). Resultant data were analyzed as previously described^[8a, 10a]. Table 2, below, lists sites of modification targeted by sulfonyl-triazole compounds HHS-0101, HHS-0201, HHS-0301, HHS-0401, and HHS-0701. The format of the table is as follows: protein Uniprot accession number (see uniprot.org); tyrosine site (amino acid position) modified; treatment (sulfonyl-triazole compound identification number, followed by Y (where if multiple compounds modify the same site, the compounds are separated by vertical lines).
# Q5VTE0 = test: SILAC LC-MS ABPP; type: cell-based, human; conditions: 25 μM 2 h, live DM93 cells
# Protocol: as §1, §2
# O75150 = biological target: T1, O75150 (Homo sapiens, UniProt O75150); test: SILAC LC-MS ABPP; type: cell-based; conditions: 25 μM 2 h, live DM93 cells
# T1 construct: endogenous in cells; host or cells: DM93
# Protocol: as §1, §2
# Q9Y6D5 = biological target: T2, Q9Y6D5 (Homo sapiens, UniProt Q9Y6D5); test: SILAC LC-MS ABPP; type: cell-based; conditions: 25 μM 2 h, live DM93 cells
# T2 construct: endogenous in cells; host or cells: DM93 cells (SILAC)
# Protocol: as §1, §2
# Q8NFI4 = test: SILAC LC-MS ABPP; type: cell-based, human; conditions: 25 μM 2 h, live DM93 cells
# Protocol: as §1, §2
# Q9Y520 = biological target: T3, Q9Y520 (Homo sapiens, UniProt Q9Y520); test: SILAC LC-MS ABPP; type: cell-based; conditions: 25 μM 2 h, live DM93 cells
# T3 construct: endogenous in cells; host or cells: DM93 cells (SILAC)
# Protocol: as §1, §2
# Q9Y5K3 = test: SILAC LC-MS ABPP; type: cell-based, human; conditions: 25 μM 2 h, live DM93 cells
# Protocol: as §1, §2
# O15523 = test: SILAC LC-MS ABPP; type: cell-based, human; conditions: 25 μM 2 h, live DM93 cells
# Protocol: as §1, §2
# [1] = biological target: T4, Fumarylacetoacetase (FAH) (Homo sapiens, UniProt P16930); test: gel-based ABPP, HHS-475 probe, HEK293T cells expressing recombinant FAH; type: cell-based; conditions: live HEK293T cells, ligand 25 μM or varying, 2 h; HHS-475 100 μM
# T4 construct: FLAG; host or cells: HEK293T
# Protocol: HEK293T cells at 30-50% confluency were transfected with 2.6 μg of FAH or PTGR2 plasmid DNA in a serum-free media/polyethyleneimine solution for 48 hrs. The cells were washed once with warm, sterile DPBS (1×, 5 mL), and then 10 mL of serum-free media (supplemented with 1% L-glutamine) containing either DMSO or SuTEx fragment (in DMSO) was added. After 2 hrs, the cells were treated with 100 μM of SuTEx alkyne probe (HHS-475, 10 μL of 1000× DMSO stock) and incubated for an additional 2 hrs. The media was aspirated and cells washed with cold PBS (5 mL) and harvested. Cells were spun at 500×g for 5 min at 4° C. and supernatant was removed. Pellets were resuspended in 1 mL of cold DPB S and spun at 1,400×g for 3 min at 4° C. and supernatant was removed. […] The samples were analyzed by SDS-PAGE (30 μL) and imaged by in-gel fluorescence scanning.
# Competitive gel-based chemoproteomic assays were performed using recombinant proteins from select targets to verify our LC-MS findings. […] Quantitative chemical proteomic studies identified HHS-0401 as a ligand for the Y244 site of FAH. These findings were confirmed by treating HEK293T cells expressing recombinant FAH with SuTEx ligands (25 μM, 2 hours, 37° C.) followed by labeling with HHS-475 probe (100 μM, 2 hours, 37° C.), cell lysis, and conjugation with rhodamine azide by CuAAC to visualize probe-modified proteins using in-gel fluorescence scanning.
# T1 sequence (O75150 whole entry): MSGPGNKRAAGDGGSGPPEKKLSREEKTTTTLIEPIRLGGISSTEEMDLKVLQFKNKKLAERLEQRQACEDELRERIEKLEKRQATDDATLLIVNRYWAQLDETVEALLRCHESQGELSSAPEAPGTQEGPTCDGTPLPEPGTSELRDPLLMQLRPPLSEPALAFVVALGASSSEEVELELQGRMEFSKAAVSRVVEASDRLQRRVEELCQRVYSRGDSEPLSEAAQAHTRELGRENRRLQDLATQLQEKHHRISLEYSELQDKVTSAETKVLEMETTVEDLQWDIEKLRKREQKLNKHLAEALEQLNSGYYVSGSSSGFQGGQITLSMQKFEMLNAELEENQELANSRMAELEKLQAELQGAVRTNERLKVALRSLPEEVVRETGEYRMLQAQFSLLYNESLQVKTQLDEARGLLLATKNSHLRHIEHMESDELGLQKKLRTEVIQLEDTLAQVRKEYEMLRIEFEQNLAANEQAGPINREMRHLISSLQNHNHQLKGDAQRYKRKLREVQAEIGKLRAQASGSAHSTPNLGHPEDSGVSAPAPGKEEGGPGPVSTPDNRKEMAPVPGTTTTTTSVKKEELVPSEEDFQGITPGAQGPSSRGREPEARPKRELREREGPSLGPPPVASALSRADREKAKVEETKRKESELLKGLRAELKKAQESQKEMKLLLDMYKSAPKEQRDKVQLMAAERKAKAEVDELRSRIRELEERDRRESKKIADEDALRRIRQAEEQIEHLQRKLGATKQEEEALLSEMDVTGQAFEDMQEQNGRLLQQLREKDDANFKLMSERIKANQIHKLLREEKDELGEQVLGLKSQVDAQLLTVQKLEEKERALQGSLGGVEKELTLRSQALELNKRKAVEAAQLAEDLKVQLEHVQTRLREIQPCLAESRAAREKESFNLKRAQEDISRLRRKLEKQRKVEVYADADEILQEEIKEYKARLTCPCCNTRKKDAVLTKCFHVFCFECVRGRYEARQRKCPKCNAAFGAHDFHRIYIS
# T2 sequence (Q9Y6D5 whole entry): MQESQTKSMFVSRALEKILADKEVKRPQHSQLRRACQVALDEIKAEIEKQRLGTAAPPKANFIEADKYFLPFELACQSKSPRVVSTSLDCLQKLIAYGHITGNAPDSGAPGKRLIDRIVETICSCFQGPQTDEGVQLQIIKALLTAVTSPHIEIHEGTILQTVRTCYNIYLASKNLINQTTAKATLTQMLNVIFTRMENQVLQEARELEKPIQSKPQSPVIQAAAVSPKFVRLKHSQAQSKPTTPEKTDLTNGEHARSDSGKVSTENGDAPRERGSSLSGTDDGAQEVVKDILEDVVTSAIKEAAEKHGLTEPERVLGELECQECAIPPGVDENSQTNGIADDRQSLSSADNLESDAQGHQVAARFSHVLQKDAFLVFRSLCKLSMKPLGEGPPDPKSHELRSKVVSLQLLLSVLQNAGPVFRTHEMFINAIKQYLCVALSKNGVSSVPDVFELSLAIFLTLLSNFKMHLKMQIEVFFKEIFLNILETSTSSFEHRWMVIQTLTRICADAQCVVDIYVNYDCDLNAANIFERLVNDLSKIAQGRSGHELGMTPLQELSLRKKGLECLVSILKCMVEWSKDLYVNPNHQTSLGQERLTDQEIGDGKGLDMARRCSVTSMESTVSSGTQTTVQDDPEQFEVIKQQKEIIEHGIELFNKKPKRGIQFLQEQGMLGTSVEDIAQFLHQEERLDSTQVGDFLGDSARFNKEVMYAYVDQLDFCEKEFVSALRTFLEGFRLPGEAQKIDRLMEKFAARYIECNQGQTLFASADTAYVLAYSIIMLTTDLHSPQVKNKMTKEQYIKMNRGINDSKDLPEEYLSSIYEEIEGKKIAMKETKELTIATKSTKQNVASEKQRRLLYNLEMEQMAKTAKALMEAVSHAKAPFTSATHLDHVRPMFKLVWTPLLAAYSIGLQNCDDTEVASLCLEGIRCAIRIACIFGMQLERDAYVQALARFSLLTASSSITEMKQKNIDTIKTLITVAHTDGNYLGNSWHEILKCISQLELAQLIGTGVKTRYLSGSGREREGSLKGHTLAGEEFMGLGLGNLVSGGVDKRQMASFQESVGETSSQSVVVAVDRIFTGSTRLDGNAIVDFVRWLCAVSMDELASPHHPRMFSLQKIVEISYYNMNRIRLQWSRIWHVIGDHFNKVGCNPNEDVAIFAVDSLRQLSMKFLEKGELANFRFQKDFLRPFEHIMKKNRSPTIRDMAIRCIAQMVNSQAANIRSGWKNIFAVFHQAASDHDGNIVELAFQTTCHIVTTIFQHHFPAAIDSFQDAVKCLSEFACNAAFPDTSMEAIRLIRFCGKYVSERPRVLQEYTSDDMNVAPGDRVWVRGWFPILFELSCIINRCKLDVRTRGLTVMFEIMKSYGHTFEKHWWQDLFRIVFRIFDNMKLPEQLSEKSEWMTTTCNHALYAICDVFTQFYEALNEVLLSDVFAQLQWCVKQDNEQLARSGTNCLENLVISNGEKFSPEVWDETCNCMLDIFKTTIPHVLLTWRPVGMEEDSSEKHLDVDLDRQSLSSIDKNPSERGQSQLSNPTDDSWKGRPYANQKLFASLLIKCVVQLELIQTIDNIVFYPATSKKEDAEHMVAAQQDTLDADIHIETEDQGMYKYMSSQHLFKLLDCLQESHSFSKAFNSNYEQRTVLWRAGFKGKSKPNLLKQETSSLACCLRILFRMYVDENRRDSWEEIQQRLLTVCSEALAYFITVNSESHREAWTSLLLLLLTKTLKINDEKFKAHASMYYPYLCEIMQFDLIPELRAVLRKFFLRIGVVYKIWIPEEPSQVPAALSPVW
# T4 sequence (P16930 whole entry): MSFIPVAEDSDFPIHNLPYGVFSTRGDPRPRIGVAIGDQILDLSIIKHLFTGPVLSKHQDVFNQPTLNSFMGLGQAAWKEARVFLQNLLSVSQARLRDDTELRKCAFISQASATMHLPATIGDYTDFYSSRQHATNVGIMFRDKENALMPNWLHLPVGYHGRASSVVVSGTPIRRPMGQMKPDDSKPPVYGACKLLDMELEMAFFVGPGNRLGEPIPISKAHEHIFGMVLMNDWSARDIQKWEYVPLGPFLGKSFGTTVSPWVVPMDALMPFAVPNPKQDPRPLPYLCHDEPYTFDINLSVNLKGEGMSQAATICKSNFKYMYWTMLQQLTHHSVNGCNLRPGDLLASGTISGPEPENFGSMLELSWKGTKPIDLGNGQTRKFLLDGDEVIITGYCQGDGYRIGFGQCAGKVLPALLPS
smiles,measurement,setting,value
"O=C(NC1CC1)c1ccc(S(=O)(=O)n2cncn2)cc1 [HHS-0101, 4-((1H-1,2,4-triazol-1-yl)sulfonyl)-N-cyclopropylbenzamide]",liganded tyrosine site 1008,A6NKT7,HHS0101.Y (tyrosine sites that showed >80% reductions (SR >5) in probe labeling in cells treated with compounds (liganded sites))
same,liganded tyrosine site 183,Q5VTE0,HHS0101.Y (tyrosine sites that showed >80% reductions (SR >5) in probe labeling in cells treated with compounds (liganded sites))
same,liganded tyrosine site 928,O75150,HHS0101.Y (tyrosine sites that showed >80% reductions (SR >5) in probe labeling in cells treated with compounds (liganded sites))
same,liganded tyrosine site 1632,Q9Y6D5,HHS0101.Y|HHS0301.Y|HHS0701.Y (tyrosine sites that showed >80% reductions (SR >5) in probe labeling in cells treated with compounds (liganded sites))
"O=C(NCC1CC1)c1ccc(S(=O)(=O)n2cncn2)cc1 [HHS-0201, 4-((1H-1,2,4-triazol-1-yl)sulfonyl)-N-(cyclopropylmethyl)benzamide]",liganded tyrosine site 213,Q8NFI4,HHS0201.Y (tyrosine sites that showed >80% reductions (SR >5) in probe labeling in cells treated with compounds (liganded sites))
same,liganded tyrosine site 26,Q9Y520,HHS0201.Y (tyrosine sites that showed >80% reductions (SR >5) in probe labeling in cells treated with compounds (liganded sites))
"O=C(NC1CCCCC1)c1ccc(S(=O)(=O)n2cncn2)cc1 [HHS-0301, 4-((1H-1,2,4-triazol-1-yl)sulfonyl)-N-cyclohexylbenzamide]",liganded tyrosine site 173,Q9Y5K3,HHS0301.Y (tyrosine sites that showed >80% reductions (SR >5) in probe labeling in cells treated with compounds (liganded sites))
same,liganded tyrosine site 258,O75150,HHS0301.Y (tyrosine sites that showed >80% reductions (SR >5) in probe labeling in cells treated with compounds (liganded sites))
"O=C(NCc1ccccc1)c1ccc(S(=O)(=O)n2cncn2)cc1 [HHS-0401, 4-((1H-1,2,4-triazol-1-yl)sulfonyl)-N-benzylbenzamide]",liganded tyrosine site 264,O15523,HHS0401.Y (tyrosine sites that showed >80% reductions (SR >5) in probe labeling in cells treated with compounds (liganded sites))
same,liganded tyrosine site 2707,Q9Y520,HHS0401.Y (tyrosine sites that showed >80% reductions (SR >5) in probe labeling in cells treated with compounds (liganded sites))
same,liganded tyrosine site 97,Q9Y6D5,HHS0401.Y (tyrosine sites that showed >80% reductions (SR >5) in probe labeling in cells treated with compounds (liganded sites))
same,blockade of HHS-475 labeling of FAH,[1],blocked HHS-475 labeling of FAH; also recorded: competing probe labeling of recombinant FAH in a concentration-dependent manner
